Assay results published in US20150011466A1, “APJ Receptor Compounds” (priority 2012, published 2015).
Where two headings read alike, the source gives them in different places. Where a SMILES comes first, the peptide text is derived from it. [ ]: non-standard residue; d: D form. The star is where a group is joined. Palmitoyl = CCCCCCCCCCCCCCCC(=O)*

What was measured:
APJ receptor = target: T1, APJ receptor (Homo sapiens, UniProt P35414); test: HTRF cAMP assay, inhibition of NKH477 stimulated cAMP in Human TRex cells expressing APJ upon doxycycline induction (APJ-hTREX); format: cell-based; conditions: for percent intrinsic activity at 0.3 µM: read-out: % IA (@ 300 nM); for Ranking: class combining EC50 and % histamine
T1 construct: expressed in transfected cells; host or cells: Human TRex cells (doxycycline-inducible)
T1 sequence (P35414 1-380): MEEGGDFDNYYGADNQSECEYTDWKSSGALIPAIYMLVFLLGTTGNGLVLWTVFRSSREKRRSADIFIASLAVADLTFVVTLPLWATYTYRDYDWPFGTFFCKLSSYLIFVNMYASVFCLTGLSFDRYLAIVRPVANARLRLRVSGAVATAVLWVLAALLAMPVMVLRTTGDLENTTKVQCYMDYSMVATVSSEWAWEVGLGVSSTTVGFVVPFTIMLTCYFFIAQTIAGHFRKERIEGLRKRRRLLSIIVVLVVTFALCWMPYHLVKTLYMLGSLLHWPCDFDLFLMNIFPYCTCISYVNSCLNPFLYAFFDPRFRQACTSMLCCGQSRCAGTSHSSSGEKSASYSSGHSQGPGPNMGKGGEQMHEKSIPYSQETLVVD
Outline: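 Cells stimulated with NKH477 and cAMP measured by HTRF competitive immunoassay (cryptate anti-cAMP antibody, d2-labeled cAMP). APJ-hTREX cells induced with […] doxycycline and seeded overnight at 40 k/well.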

[1] = inhibition of NKH477 stimulated cAMP, APJ-hTREX cells, read-out: APJ-hTREX EC50

| Histimine (% vs. 48/40) (Histimine (% vs. 48/40)) [%] | percent intrinsic activity at 0.3 µM (APJ receptor) [%] | EC50 (APJ receptor; [1]) [nM] | Compound | EC50 (APJ receptor) [nM] | Ranking (APJ receptor) |
| --- | --- | --- | --- | --- | --- |
| 13 | 46 | 732 | CCCCCCCCCCCCCCCC(=O)N[C@H](C(=O)N[C@H](C(=O)N[C@@H](Cc1ccccc1)C(=O)N[C@@H](CCCNC(=N)N)C(=O)N[C@@H](CO)C(=O)N[C@@H](CO)C(=O)N[C@@H](CCC(=O)O)C(=O)N[C@H](CCCCN)C(=O)N[C@@H](CCCNC(=N)N)C(=O)N[C@@H](CCCNC(=N)N)C(=O)N[C@@H](CC(=O)O)C(=O)N[C@@H](C)C(=O)N[C@@H](CC(=O)O)C(=O)N[C@H](C(=O)N[C@@H](Cc1ccccc1)C(=O)N[C@H](C(N)=O)[C@@H](C)CC)[C@@H](C)CC)C(C)C)[C@@H](C)O [Compound 38] (Palmitoyl-TVFRSSE[dK]RRDADIFI-NH2; C-terminus assumed) |  | * (EC50>500 nM and % histamine>35%) |
| 8 | 27 |  | CCCCCCCCCCCCCCCC(=O)N[C@H](C(=O)N[C@H](C(=O)N[C@@H](Cc1ccccc1)C(=O)N[C@@H](CCCNC(=N)N)C(=O)N[C@@H](CO)C(=O)N[C@@H](CO)C(=O)N[C@@H](CCC(=O)O)C(=O)N[C@H](CCCCN)C(=O)N[C@@H](CCCNC(=N)N)C(=O)N[C@@H](CCCNC(=N)N)C(=O)N[C@@H](CO)C(=O)N[C@@H](CC(=O)O)C(=O)N[C@@H](CC(=O)O)C(=O)N[C@H](C(=O)N[C@@H](Cc1ccccc1)C(=O)N[C@H](C(N)=O)[C@@H](C)CC)[C@@H](C)CC)C(C)C)[C@@H](C)O [Compound 39] (Palmitoyl-TVFRSSE[dK]RRSDDIFI-NH2) |  |  |
| 46 | 71 | 48.2 | CCCCCCCCCCCCCCCC(=O)N[C@H](C(=O)N[C@H](C(=O)N[C@@H](Cc1ccccc1)C(=O)N[C@@H](CCCNC(=N)N)C(=O)N[C@@H](CO)C(=O)N[C@@H](CO)C(=O)N[C@@H](CCC(=O)O)C(=O)N[C@H](CCCCN)C(=O)N[C@@H](CCCNC(=N)N)C(=O)N[C@@H](CCCNC(=N)N)C(=O)N[C@@H](CO)C(=O)N[C@@H](C)C(=O)N[C@@H](CC(=O)O)C(=O)N[C@@H](CC(=O)O)C(=O)N[C@@H](Cc1ccccc1)C(=O)N[C@H](C(N)=O)[C@@H](C)CC)C(C)C)[C@@H](C)O [Compound 40] (Palmitoyl-TVFRSSE[dK]RRSADDFI-NH2; C-terminus assumed) |  | *** (EC50<100 nM and % histamine>35%) |
| 5 | 78 | 3350 | CCCCCCCCCCCCCCCC(=O)N[C@H](C(=O)N[C@H](C(=O)N[C@@H](Cc1ccccc1)C(=O)N[C@@H](CCCNC(=N)N)C(=O)N[C@@H](CO)C(=O)N[C@@H](CO)C(=O)N[C@@H](CCC(=O)O)C(=O)N1CCC[C@H]1C(=O)N[C@@H](CCCNC(=N)N)C(=O)N[C@@H](CCCNC(=N)N)C(=O)N[C@@H](CO)C(=O)N[C@@H](C)C(=O)N[C@@H](CC(=O)O)C(=O)N[C@H](C(=O)N[C@@H](Cc1ccccc1)C(=O)N[C@H](C(N)=O)[C@@H](C)CC)[C@@H](C)CC)C(C)C)[C@@H](C)O [Compound 48] (Palmitoyl-TVFRSSEPRRSADIFI-NH2; C-terminus assumed) |  | * (EC50>500 nM and % histamine>35%) |

Continued, molecule first:

| Compound | Histimine (% vs. 48/40) (Histimine (% vs. 48/40)) [%] | percent intrinsic activity at 0.3 µM (APJ receptor) [%] | EC50 (APJ receptor; [1]) [nM] | EC50 (APJ receptor) [nM] | Ranking (APJ receptor) |
| --- | --- | --- | --- | --- | --- |
| CCCCCCCCCCCCCCCC(=O)N[C@H](C(=O)N[C@H](C(=O)N[C@@H](Cc1ccccc1)C(=O)N[C@@H](CCCNC(=N)N)C(=O)N[C@@H](CO)C(=O)N[C@@H](CO)C(=O)N[C@@H](CCC(=O)O)C(=O)N[C@H](CCCCN)C(=O)N[C@@H](CCCNC(=N)N)C(=O)N[C@@H](CCCNC(=N)N)C(=O)N[C@@H](CO)C(=O)N[C@@H](C)C(=O)N[C@@H](CC(=O)O)C(=O)N[C@H](C(=O)N[C@@H](CCC(N)=O)C(=O)N[C@H](C(N)=O)[C@@H](C)CC)[C@@H](C)CC)C(C)C)[C@@H](C)O [Compound 31] (Palmitoyl-TVFRSSE[dK]RRSADIQI-NH2) | 68 | 67 |  |  |  |
| CCCCCCCCCCCCCCCC(=O)N[C@H](C(=O)N[C@H](C(=O)N[C@@H](Cc1ccccc1)C(=O)N[C@@H](CCCNC(=N)N)C(=O)N[C@@H](CO)C(=O)N[C@@H](CO)C(=O)N[C@@H](CCC(=O)O)C(=O)N[C@H](CCCCN)C(=O)N[C@@H](CCCNC(=N)N)C(=O)N[C@@H](CCCNC(=N)N)C(=O)N[C@@H](CO)C(=O)N[C@@H](C)C(=O)N[C@@H](CC(=O)O)C(=O)N[C@H](C(=O)N[C@@H](Cc1ccccc1)C(=O)N[C@@H](CCC(N)=O)C(N)=O)[C@@H](C)CC)C(C)C)[C@@H](C)O [Compound 32] (Palmitoyl-TVFRSSE[dK]RRSADIFQ-NH2) | 69 | 55 |  |  |  |
| CCCCCCCCCCCCCCCC(=O)N[C@@H](CC(=O)O)C(=O)N[C@H](C(=O)N[C@@H](Cc1ccccc1)C(=O)N[C@@H](CCCNC(=N)N)C(=O)N[C@@H](CO)C(=O)N[C@@H](CO)C(=O)N[C@@H](CCC(=O)O)C(=O)N[C@H](CCCCN)C(=O)N[C@@H](CCCNC(=N)N)C(=O)N[C@@H](CCCNC(=N)N)C(=O)N[C@@H](CO)C(=O)N[C@@H](C)C(=O)N[C@@H](CC(=O)O)C(=O)N[C@H](C(=O)N[C@@H](Cc1ccccc1)C(=O)N[C@H](C(N)=O)[C@@H](C)CC)[C@@H](C)CC)C(C)C [Compound 33] (Palmitoyl-DVFRSSE[dK]RRSADIFI-NH2; C-terminus assumed) | 11 | 61 |  | 107 | **** (EC50 101-500 nM and % histamine<35%) |
| CCCCCCCCCCCCCCCC(=O)N[C@H](C(=O)N[C@H](C(=O)N[C@@H](CC(=O)O)C(=O)N[C@@H](CCCNC(=N)N)C(=O)N[C@@H](CO)C(=O)N[C@@H](CO)C(=O)N[C@@H](CCC(=O)O)C(=O)N[C@H](CCCCN)C(=O)N[C@@H](CCCNC(=N)N)C(=O)N[C@@H](CCCNC(=N)N)C(=O)N[C@@H](CO)C(=O)N[C@@H](C)C(=O)N[C@@H](CC(=O)O)C(=O)N[C@H](C(=O)N[C@@H](Cc1ccccc1)C(=O)N[C@H](C(N)=O)[C@@H](C)CC)[C@@H](C)CC)C(C)C)[C@@H](C)O [Compound 35] (Palmitoyl-TVDRSSE[dK]RRSADIFI-NH2; C-terminus assumed) | 4 | 70 |  | 142 | **** (EC50 101-500 nM and % histamine<35%) |
| CCCCCCCCCCCCCCCC(=O)N[C@H](C(=O)N[C@H](C(=O)N[C@@H](Cc1ccccc1)C(=O)N[C@@H](CCCNC(=N)N)C(=O)N[C@@H](CO)C(=O)N[C@@H](CO)C(=O)N[C@@H](CCC(=O)O)C(=O)N[C@H](CCCCN)C(=O)N[C@@H](CCCNC(=N)N)C(=O)N[C@@H](CCCNC(=N)N)C(=O)N[C@@H](CO)C(=O)N[C@@H](C)C(=O)N[C@@H](CC(=O)O)C(=O)N[C@H](C(=O)N[C@@H](Cc1ccccc1)C(=O)N[C@@H](CC(=O)O)C(N)=O)[C@@H](C)CC)C(C)C)[C@@H](C)O [Compound 41] (Palmitoyl-TVFRSSE[dK]RRSADIFD-NH2) | 48 | 60 |  |  |  |
| CCCCCCCCCCCCCCCC(=O)N[C@H](C(=O)N[C@H](C(=O)N[C@@H](Cc1ccccc1)C(=O)N1CCC[C@H]1C(=O)N[C@@H](CO)C(=O)N[C@@H](CO)C(=O)N[C@@H](CCC(=O)O)C(=O)N[C@H](CCCCN)C(=O)N[C@@H](CCCNC(=N)N)C(=O)N[C@@H](CCCNC(=N)N)C(=O)N[C@@H](CO)C(=O)N[C@@H](C)C(=O)N[C@@H](CC(=O)O)C(=O)N[C@H](C(=O)N[C@@H](Cc1ccccc1)C(=O)N[C@H](C(N)=O)[C@@H](C)CC)[C@@H](C)CC)C(C)C)[C@@H](C)O [Compound 44] (Palmitoyl-TVFPSSE[dK]RRSADIFI-NH2; C-terminus assumed) | 7 | 74 |  | 111 | **** (EC50 101-500 nM and % histamine<35%) |
| CCCCCCCCCCCCCCCC(=O)N[C@H](C(=O)N[C@H](C(=O)N[C@@H](Cc1ccccc1)C(=O)N[C@@H](CCCNC(=N)N)C(=O)N[C@@H](CO)C(=O)N[C@@H](CO)C(=O)N1CCC[C@H]1C(=O)N[C@H](CCCCN)C(=O)N[C@@H](CCCNC(=N)N)C(=O)N[C@@H](CCCNC(=N)N)C(=O)N[C@@H](CO)C(=O)N[C@@H](C)C(=O)N[C@@H](CC(=O)O)C(=O)N[C@H](C(=O)N[C@@H](Cc1ccccc1)C(=O)N[C@H](C(N)=O)[C@@H](C)CC)[C@@H](C)CC)C(C)C)[C@@H](C)O [Compound 47] (Palmitoyl-TVFRSSP[dK]RRSADIFI-NH2; C-terminus assumed) | 60 | 83 |  | 13.3 | *** (EC50<100 nM and % histamine>35%) |
| CCCCCCCCCCCCCCCC(=O)N[C@H](C(=O)N[C@H](C(=O)N[C@@H](Cc1ccccc1)C(=O)N[C@@H](CCCNC(=N)N)C(=O)N[C@@H](CO)C(=O)N[C@@H](CO)C(=O)N[C@@H](CCC(=O)O)C(=O)N[C@H](CCCCN)C(=O)N[C@@H](CCCNC(=N)N)C(=O)N1CCC[C@H]1C(=O)N[C@@H](CO)C(=O)N[C@@H](C)C(=O)N[C@@H](CC(=O)O)C(=O)N[C@H](C(=O)N[C@@H](Cc1ccccc1)C(=O)N[C@H](C(N)=O)[C@@H](C)CC)[C@@H](C)CC)C(C)C)[C@@H](C)O [Compound 50] (Palmitoyl-TVFRSSE[dK]RPSADIFI-NH2) | 16 | 41 |  |  |  |
